# Laboratory results: US10604512B2, “3-(1H-indol-2-yl)-1H-indazoles and therapeutic uses thereof” (Samumed, LLC, priority 2015, dated 2020)
# Tested on: Wnt activity (Sp5-Luc reporter, TCF/LEF binding sites) in SW480 colon carcinoma cells
# Test: Screening assay for Wnt activity: Sp5-Luc reporter gene assay in stably transduced SW480 colon carcinoma cells
# Assay type: cell-based
# Conditions: Homo sapiens, at 10 μM, given where EC50 >10 μM, read-out: percent inhibition at 10 μM
# Outline: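 SW480 cells stably transduced with a luciferase reporter driven by an Sp5 promoter of eight TCF/LEF sites were plated at 4,000 cells/well in 1% FBS medium. They were exposed overnight at 37° C to a 10-point 1:3 dilution series from 10 μM (0.1% DMSO). Luminescence was normalized to DMSO for four-parameter EC50, or percent inhibition at 10 μM.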
row,SMILES,inhibition at 10 µM
1,"CN(C)Cc1cncc(-c2ccc3[nH]nc(-c4cc5c(-c6cccc(F)c6)cccc5[nH]4)c3c2)c1 [Compound 13, 1-(5-(3-(4-(3-Fluorophenyl)-1H-indol-2-yl)-1H-indazol-5-yl)pyridin-3-yl)-N,N-dimethylmethanamine]",22.5%
2,"FC1(F)CCN(Cc2cncc(-c3ccc4[nH]nc(-c5cc6c(-c7cccnc7)cccc6[nH]5)c4c3)c2)C1 [Compound 110, 5-(5-((3,3-Difluoropyrrolidin-1-yl)methyl)pyridin-3-yl)-3-(4-(pyridin-3-yl)-1H-indol-2-yl)-1H-indazole]",30.1%
3,"O=C(Cc1ccccc1)Nc1cncc(-c2ccc3[nH]nc(-c4cc5c(-c6ccncc6)cccc5[nH]4)c3c2)c1 [Compound 122, 2-Phenyl-N-(5-(3-(4-(pyridin-4-yl)-1H-indol-2-yl)-1H-indazol-5-yl)pyridin-3-yl)acetamide]",45.5%
4,"c1cc(-c2ccncc2)c2cc(-c3n[nH]c4ccc(-c5ccncc5)cc34)[nH]c2c1 [Compound 130, 5-(Pyridin-4-yl)-3-(4-(pyridin-4-yl)-1H-indol-2-yl)-1H-indazole]",52.8%

# Same assay, conditions: Homo sapiens, overnight incubation, 10-point curve from 10 μM
row,SMILES,EC50
1,"CCC(=O)Nc1cncc(-c2ccc3[nH]nc(-c4cc5c(-c6cccc(F)c6)cccc5[nH]4)c3c2)c1 [Compound 1, N-(5-(3-(4-(3-Fluorophenyl)-1H-indol-2-yl)-1H-indazol-5-yl)pyridin-3-yl) propionamide]",57 nM
2,"Fc1cccc(-c2cccc3[nH]c(-c4n[nH]c5ccc(-c6cccnc6)cc45)cc23)c1 [Compound 4, 3-(4-(3-Fluorophenyl)-1H-indol-2-yl)-5-(pyridin-3-yl)-1H-indazole]",275 nM
3,"CN(C)Cc1cncc(-c2ccc3[nH]nc(-c4cc5c(-c6cccc(F)c6)cccc5[nH]4)c3c2)c1 [Compound 13, 1-(5-(3-(4-(3-Fluorophenyl)-1H-indol-2-yl)-1H-indazol-5-yl)pyridin-3-yl)-N,N-dimethylmethanamine]",> 10000 nM
4,"CCCC(=O)Nc1cncc(-c2ccc3[nH]nc(-c4cc5c(-c6cccc(F)c6)cccc5[nH]4)c3c2)c1 [Compound 17, N-(5-(3-(4-(3-Fluorophenyl)-1H-indol-2-yl)-1H-indazol-5-yl)pyridin-3-yl) butyramide]",125 nM
5,"O=C(Nc1cncc(-c2ccc3[nH]nc(-c4cc5c(-c6cccc(F)c6)cccc5[nH]4)c3c2)c1)C1CC1 [Compound 20, N-(5-(3-(4-(3-Fluorophenyl)-1H-indol-2-yl)-1H-indazol-5-yl)pyridin-3-yl) cyclopropanecarboxamide]",100 nM
6,"O=C(Nc1cncc(-c2ccc3[nH]nc(-c4cc5c(-c6cccc(F)c6)cccc5[nH]4)c3c2)c1)C1CCCCC1 [Compound 23, N-(5-(3-(4-(3-Fluorophenyl)-1H-indol-2-yl)-1H-indazol-5-yl)pyridin-3-yl) cyclohexanecarboxamide]",595 nM
7,"Fc1cccc(-c2cccc3[nH]c(-c4n[nH]c5ccc(-c6ccccn6)cc45)cc23)c1 [Compound 28, 3-(4-(3-Fluorophenyl)-1H-indol-2-yl)-5-(pyridin-2-yl)-1H-indazole]",440 nM
8,"CC(C)CC(=O)Nc1cncc(-c2ccc3[nH]nc(-c4cc5c(-c6ccc(F)cc6)cccc5[nH]4)c3c2)c1 [Compound 30, N-(5-(3-(4-(4-Fluorophenyl)-1H-indol-2-yl)-1H-indazol-5-yl)pyridin-3-yl)-3-methylbutanamide]",420 nM
9,"CC(C)(C)C(=O)Nc1cncc(-c2ccc3[nH]nc(-c4cc5c(-c6ccc(F)cc6)cccc5[nH]4)c3c2)c1 [Compound 36, N-(5-(3-(4-(4-Fluorophenyl)-1H-indol-2-yl)-1H-indazol-5-yl)pyridin-3-yl) pivalamide]",655 nM
10,"O=C(Nc1cncc(-c2ccc3[nH]nc(-c4cc5c(-c6ccc(F)cc6)cccc5[nH]4)c3c2)c1)c1ccccc1 [Compound 39, N-(5-(3-(4-(4-Fluorophenyl)-1H-indol-2-yl)-1H-indazol-5-yl)pyridin-3-yl) benzamide]",530 nM
11,"CN(C)Cc1cncc(-c2ccc3[nH]nc(-c4cc5c(-c6ccc(F)cc6)cccc5[nH]4)c3c2)c1 [Compound 41, 1-(5-(3-(4-(4-Fluorophenyl)-1H-indol-2-yl)-1H-indazol-5-yl)pyridin-3-yl)-N,N-dimethylmethanamine]",165 nM
12,"CC(C)(C)CC(=O)Nc1cncc(-c2ccc3[nH]nc(-c4cc5c(-c6ccc(F)cc6)cccc5[nH]4)c3c2)c1 [Compound 44, N-(5-(3-(4-(4-Fluorophenyl)-1H-indol-2-yl)-1H-indazol-5-yl)pyridin-3-yl)-3,3-dimethylbutanamide]",1150 nM
13,"CCCC(=O)Nc1cncc(-c2ccc3[nH]nc(-c4cc5c(-c6ccc(F)cc6)cccc5[nH]4)c3c2)c1 [Compound 45, N-(5-(3-(4-(4-Fluorophenyl)-1H-indol-2-yl)-1H-indazol-5-yl)pyridin-3-yl)butyramide]",475 nM
14,"Fc1ccc(-c2cccc3[nH]c(-c4n[nH]c5ccc(-c6cncnc6)cc45)cc23)cc1 [Compound 55, 3-(4-(4-Fluorophenyl)-1H-indol-2-yl)-5-(pyrimidin-5-yl)-1H-indazole]",1780 nM
15,"CCNCc1cncc(-c2ccc3[nH]nc(-c4cc5c(-c6ccccc6F)cccc5[nH]4)c3c2)c1 [Compound 62, N-((5-(3-(4-(2-Fluorophenyl)-1H-indol-2-yl)-1H-indazol-5-yl)pyridin-3-yl)methyl)ethanamine]",4180 nM
16,"CC(C)(C)CC(=O)Nc1cncc(-c2ccc3[nH]nc(-c4cc5c(-c6ccccc6F)cccc5[nH]4)c3c2)c1 [Compound 72, N-(5-(3-(4-(2-Fluorophenyl)-1H-indol-2-yl)-1H-indazol-5-yl)pyridin-3-yl)-3,3-dimethylbutanamide]",4260 nM
17,"O=C(Nc1cncc(-c2ccc3[nH]nc(-c4cc5c(-c6ccccc6F)cccc5[nH]4)c3c2)c1)C1CCCC1 [Compound 78, N-(5-(3-(4-(2-Fluorophenyl)-1H-indol-2-yl)-1H-indazol-5-yl)pyridin-3-yl) cyclopentanecarboxamide]",1060 nM
18,"FC1(F)CCN(Cc2cncc(-c3ccc4[nH]nc(-c5cc6c(-c7cccnc7)cccc6[nH]5)c4c3)c2)C1 [Compound 110, 5-(5-((3,3-Difluoropyrrolidin-1-yl)methyl)pyridin-3-yl)-3-(4-(pyridin-3-yl)-1H-indol-2-yl)-1H-indazole]",> 10000 nM
19,"O=C(Cc1ccccc1)Nc1cncc(-c2ccc3[nH]nc(-c4cc5c(-c6ccncc6)cccc5[nH]4)c3c2)c1 [Compound 122, 2-Phenyl-N-(5-(3-(4-(pyridin-4-yl)-1H-indol-2-yl)-1H-indazol-5-yl)pyridin-3-yl)acetamide]",> 10000 nM
20,"CCCC(=O)Nc1cncc(-c2ccc3[nH]nc(-c4cc5c(-c6ccncc6)cccc5[nH]4)c3c2)c1 [Compound 129, N-(5-(3-(4-(Pyridin-4-yl)-1H-indol-2-yl)-1H-indazol-5-yl)pyridin-3-yl) butyramide]",600 nM
21,"c1cc(-c2ccncc2)c2cc(-c3n[nH]c4ccc(-c5ccncc5)cc34)[nH]c2c1 [Compound 130, 5-(Pyridin-4-yl)-3-(4-(pyridin-4-yl)-1H-indol-2-yl)-1H-indazole]",> 10000 nM
22,"O=C(Nc1cncc(-c2ccc3[nH]nc(-c4cc5c(-c6ccncc6)cccc5[nH]4)c3c2)c1)C1CCCCC1 [Compound 135, N-(5-(3-(4-(Pyridin-4-yl)-1H-indol-2-yl)-1H-indazol-5-yl)pyridin-3-yl) cyclohexanecarboxamide]",4400 nM
23,"c1ccc(-c2ccc3[nH]nc(-c4cc5c(-c6ccncc6)cccc5[nH]4)c3c2)nc1 [Compound 140, 5-(Pyridin-2-yl)-3-(4-(pyridin-4-yl)-1H-indol-2-yl)-1H-indazole]",3560 nM
24,"Cc1ccncc1-c1ccc2[nH]nc(-c3cc4c(-c5ccccn5)cccc4[nH]3)c2c1 [Compound 145, 5-(4-Methylpyridin-3-yl)-3-(4-(pyridin-2-yl)-1H-indol-2-yl)-1H-indazole]",1900 nM
25,"O=C(Nc1cncc(-c2ccc3[nH]nc(-c4cc5c(-c6ccccn6)cccc5[nH]4)c3c2)c1)c1ccccc1 [Compound 151, N-(5-(3-(4-(Pyridin-2-yl)-1H-indol-2-yl)-1H-indazol-5-yl)pyridin-3-yl) benzamide]",150 nM
26,"c1ccc(-c2cccc3[nH]c(-c4n[nH]c5ccc(-c6ccncc6)cc45)cc23)nc1 [Compound 158, 3-(4-(Pyridin-2-yl)-1H-indol-2-yl)-5-(pyridin-4-yl)-1H-indazole]",4120 nM
